Test results as given in ChEMBL document CHEMBL3784933, “Synthesis and antitumor evaluation of trimethoxyanilides based on 4(3H)-quinazolinone scaffolds” (2016).

Experiments:
Assay type in all cases: functional
CCRF-CEM = experiment: Cytotoxicity against human CCRF-CEM cells assessed as growth inhibition at 10 uM after 48 hrs by SRB assay; conditions: read-out: GI
A549 = experiment: Cytotoxicity against human A549 cells assessed as growth inhibition at 10 uM after 48 hrs by SRB assay; conditions: A549, 48 h, read-out: GI
[1] = Cytotoxicity against human HOP92 cells assessed as growth inhibition at 10 uM after 48 hrs by SRB assay; conditions: HOP-92, 48 h, read-out: GI
NCI-H522 = experiment: Cytotoxicity against human NCI-H522 cells assessed as growth inhibition at 10 uM after 48 hrs by SRB assay; conditions: NCI-H522, 48 h, read-out: GI
[2] = Cytotoxicity against human SF268 cells assessed as growth inhibition at 10 uM after 48 hrs by SRB assay; conditions: SF-268, 48 h, read-out: GI
[3] = Cytotoxicity against human SF295 cells assessed as growth inhibition at 10 uM after 48 hrs by SRB assay; conditions: SF-295, 48 h, read-out: GI
[4] = Cytotoxicity against human SF539 cells assessed as growth inhibition at 10 uM after 48 hrs by SRB assay; conditions: SF-539, 48 h, read-out: GI
[5] = Cytotoxicity against human SNB19 cells assessed as growth inhibition at 10 uM after 48 hrs by SRB assay; conditions: SNB-19, 48 h, read-out: GI
[6] = Cytotoxicity against human SNB75 cells assessed as growth inhibition at 10 uM after 48 hrs by SRB assay; conditions: SNB-75, 48 h, read-out: GI
U-251 = experiment: Cytotoxicity against human U251 cells assessed as growth inhibition at 10 uM after 48 hrs by SRB assay; conditions: U-251, 48 h, read-out: GI
Malme-3M = experiment: Cytotoxicity against human MALME-3M cells assessed as growth inhibition at 10 uM after 48 hrs by SRB assay; conditions: read-out: GI
M14 = experiment: Cytotoxicity against human M14 cells assessed as growth inhibition at 10 uM after 48 hrs by SRB assay; conditions: M14, 48 h, read-out: GI
SK-MEL-2 = experiment: Cytotoxicity against human SK-MEL-2 cells assessed as growth inhibition at 10 uM after 48 hrs by SRB assay; conditions: SK-MEL-2, 48 h, read-out: GI
SK-MEL-5 = experiment: Cytotoxicity against human SK-MEL-5 cells assessed as growth inhibition at 10 uM after 48 hrs by SRB assay; conditions: SK-MEL-5, 48 h, read-out: GI
[7] = Cytotoxicity against human UACC257 cells assessed as growth inhibition at 10 uM after 48 hrs by SRB assay; conditions: UACC-257, 48 h, read-out: GI
[8] = Cytotoxicity against human UACC62 cells assessed as growth inhibition at 10 uM after 48 hrs by SRB assay; conditions: UACC-62, 48 h, read-out: GI
[9] = Cytotoxicity against human OVCAR3 cells assessed as growth inhibition at 10 uM after 48 hrs by SRB assay; conditions: OVCAR-3, 48 h, read-out: GI
[10] = Cytotoxicity against human OVCAR8 cells assessed as growth inhibition at 10 uM after 48 hrs by SRB assay; conditions: OVCAR-8, 48 h, read-out: GI
[11] = Cytotoxicity against human NCI-ADR-RES cells assessed as growth inhibition at 10 uM after 48 hrs by SRB assay; conditions: read-out: GI
[12] = Cytotoxicity against human SKOV3 cells assessed as growth inhibition at 10 uM after 48 hrs by SRB assay; conditions: SK-OV-3, 48 h, read-out: GI
A498 = experiment: Cytotoxicity against human A498 cells assessed as growth inhibition at 10 uM after 48 hrs by SRB assay; conditions: A498, 48 h, read-out: GI
SN12C = experiment: Cytotoxicity against human SN12C cells assessed as growth inhibition at 10 uM after 48 hrs by SRB assay; conditions: read-out: GI
[13] = Cytotoxicity against human UO31 cells assessed as growth inhibition at 10 uM after 48 hrs by SRB assay; conditions: UO-31, 48 h, read-out: GI
[14] = Cytotoxicity against human PC3 cells assessed as growth inhibition at 10 uM after 48 hrs by SRB assay; conditions: PC-3, 48 h, read-out: GI
MDA-MB-231 = experiment: Cytotoxicity against human MDA-MB-231 cells assessed as growth inhibition at 10 uM after 48 hrs by SRB assay; conditions: MDA-MB-231, 48 h, read-out: GI
[15] = Cytotoxicity against human Hs 578T cells assessed as growth inhibition at 10 uM after 48 hrs by SRB assay; conditions: read-out: GI
[16] = Cytotoxicity against human BT549 cells assessed as growth inhibition at 10 uM after 48 hrs by SRB assay; conditions: BT-549, 48 h, read-out: GI
T47D = experiment: Cytotoxicity against human T47D cells assessed as growth inhibition at 10 uM after 48 hrs by SRB assay; conditions: read-out: GI
[17] = Cytotoxicity against human HL-60(TB) cells assessed as growth inhibition at 10 uM after 48 hrs by SRB assay; conditions: HL-60, 48 h, read-out: GI
K562 = experiment: Cytotoxicity against human K562 cells assessed as growth inhibition at 10 uM after 48 hrs by SRB assay; conditions: K562, 48 h, read-out: GI
[18] = Cytotoxicity against human MOLT4 cells assessed as growth inhibition at 10 uM after 48 hrs by SRB assay; conditions: MOLT-4, 48 h, read-out: GI
[19] = Cytotoxicity against human RPMI8226 cells assessed as growth inhibition at 10 uM after 48 hrs by SRB assay; conditions: RPMI-8226, 48 h, read-out: GI
SR = experiment: Cytotoxicity against human SR cells assessed as growth inhibition at 10 uM after 48 hrs by SRB assay; conditions: read-out: GI
NCI-H226 = experiment: Cytotoxicity against human NCI-H226 cells assessed as growth inhibition at 10 uM after 48 hrs by SRB assay; conditions: NCI-H226, 48 h, read-out: GI
NCI-H23 = experiment: Cytotoxicity against human NCI-H23 cells assessed as growth inhibition at 10 uM after 48 hrs by SRB assay; conditions: NCI-H23, 48 h, read-out: GI
[20] = Cytotoxicity against human HCT116 cells assessed as growth inhibition at 10 uM after 48 hrs by SRB assay; conditions: HCT-116, 48 h, read-out: GI
[21] = Cytotoxicity against human HCT15 cells assessed as growth inhibition at 10 uM after 48 hrs by SRB assay; conditions: HCT-15, 48 h, read-out: GI
KM12 = experiment: Cytotoxicity against human KM12 cells assessed as growth inhibition at 10 uM after 48 hrs by SRB assay; conditions: KM12, 48 h, read-out: GI
[22] = Cytotoxicity against human SW620 cells assessed as growth inhibition at 10 uM after 48 hrs by SRB assay; conditions: SW-620, 48 h, read-out: GI
[23] = Cytotoxicity against human LOXIMVI cells assessed as growth inhibition at 10 uM after 48 hrs by SRB assay; conditions: LOX IMVI, read-out: GI
MDA-MB-435 = experiment: Cytotoxicity against human MDA-MB-435 cells assessed as growth inhibition at 10 uM after 48 hrs by SRB assay; conditions: MDA-MB-435, 48 h, read-out: GI
SK-MEL-28 = experiment: Cytotoxicity against human SK-MEL-28 cells assessed as growth inhibition at 10 uM after 48 hrs by SRB assay; conditions: SK-MEL-28, 48 h, read-out: GI
[24] = Cytotoxicity against human OVCAR4 cells assessed as growth inhibition at 10 uM after 48 hrs by SRB assay; conditions: OVCAR-4, 48 h, read-out: GI
786-0 = experiment: Cytotoxicity against human 786-0 cells assessed as growth inhibition at 10 uM after 48 hrs by SRB assay; conditions: 786-0, 48 h, read-out: GI
ACHN = experiment: Cytotoxicity against human ACHN cells assessed as growth inhibition at 10 uM after 48 hrs by SRB assay; conditions: read-out: GI
[25] = Cytotoxicity against human Caki1 cells assessed as growth inhibition at 10 uM after 48 hrs by SRB assay; conditions: CAKI-1, 48 h, read-out: GI
[26] = Cytotoxicity against human RXF393 cells assessed as growth inhibition at 10 uM after 48 hrs by SRB assay; conditions: RXF 393, 48 h, read-out: GI
MDA-MB-468 = experiment: Cytotoxicity against human MDA-MB-468 cells assessed as growth inhibition at 10 uM after 48 hrs by SRB assay; conditions: MDA-MB-468, 48 h, read-out: GI
[27] = Cytotoxicity against human OVCAR1 cells assessed as growth inhibition at 10 uM after 48 hrs by SRB assay; conditions: OVCAR1, 48 h, read-out: GI

Q: Which results are given for `COc1cc2nc(SCC(=O)Nc3cc(OC)c(OC)c(OC)c3)n(-c3ccccc3)c(=O)c2cc1OC`?
A: inhibition of growth at 10 µM (CCRF-CEM): 18%; inhibition of growth at 10 µM (A549): 14%; inhibition of growth at 10 µM [1]: 32%; inhibition of growth at 10 µM (NCI-H522): 52%; inhibition of growth at 10 µM [2]: 19%; inhibition of growth at 10 µM [3]: 11%; inhibition of growth at 10 µM [4]: 17%; inhibition of growth at 10 µM [5]: 17%; inhibition of growth at 10 µM [6]: 20%; inhibition of growth at 10 µM (U-251): 30%; inhibition of growth at 10 µM (Malme-3M): 20%; inhibition of growth at 10 µM (M14): 15%; inhibition of growth at 10 µM (SK-MEL-2): 22%; inhibition of growth at 10 µM (SK-MEL-5): 10%; inhibition of growth at 10 µM [7]: 26%; inhibition of growth at 10 µM [8]: 19%; inhibition of growth at 10 µM [9]: 12%; inhibition of growth at 10 µM [10]: 40%; inhibition of growth at 10 µM [11]: 10%; inhibition of growth at 10 µM [12]: 12%; inhibition of growth at 10 µM (A498): 28%; inhibition of growth at 10 µM (SN12C): 11%; inhibition of growth at 10 µM [13]: 34%; inhibition of growth at 10 µM [14]: 17%; inhibition of growth at 10 µM (MDA-MB-231): 16%; inhibition of growth at 10 µM [15]: 34%; inhibition of growth at 10 µM [16]: 13%; inhibition of growth at 10 µM (T47D): 15%

Q: What does the source list for `COc1cc(NC(=O)CSc2nc3ccc(C)cc3c(=O)n2-c2ccccc2)cc(OC)c1OC`?
A: inhibition of growth at 10 µM (CCRF-CEM): 17%; inhibition of growth at 10 µM [17]: 11%; inhibition of growth at 10 µM (K562): 13%; inhibition of growth at 10 µM [18]: 41%; inhibition of growth at 10 µM [19]: 24%; inhibition of growth at 10 µM (SR): 58%; inhibition of growth at 10 µM (A549): 17%; inhibition of growth at 10 µM [1]: 51%; inhibition of growth at 10 µM (NCI-H226): 18%; inhibition of growth at 10 µM (NCI-H23): 16%; inhibition of growth at 10 µM (NCI-H522): 32%; inhibition of growth at 10 µM [20]: 13%; inhibition of growth at 10 µM [21]: 19%; inhibition of growth at 10 µM (KM12): 25%; inhibition of growth at 10 µM [22]: 13%; inhibition of growth at 10 µM [2]: 14%; inhibition of growth at 10 µM [5]: 13%; inhibition of growth at 10 µM [6]: 43%; inhibition of growth at 10 µM [23]: 25%; inhibition of growth at 10 µM (Malme-3M): 10%; inhibition of growth at 10 µM (M14): 21%; inhibition of growth at 10 µM (MDA-MB-435): 53%; inhibition of growth at 10 µM (SK-MEL-2): 14%; inhibition of growth at 10 µM (SK-MEL-28): 17%; inhibition of growth at 10 µM (SK-MEL-5): 23%; inhibition of growth at 10 µM [7]: 18%; inhibition of growth at 10 µM [8]: 23%; inhibition of growth at 10 µM [9]: 16%; inhibition of growth at 10 µM [24]: 32%; inhibition of growth at 10 µM [10]: 13%; inhibition of growth at 10 µM [11]: 25%; inhibition of growth at 10 µM (786-0): 11%; inhibition of growth at 10 µM (A498): 38%; inhibition of growth at 10 µM (ACHN): 10%; inhibition of growth at 10 µM [25]: 12%; inhibition of growth at 10 µM [26]: 14%; inhibition of growth at 10 µM [13]: 49%; inhibition of growth at 10 µM [14]: 18%; inhibition of growth at 10 µM (MDA-MB-231): 23%; inhibition of growth at 10 µM [16]: 21%; inhibition of growth at 10 µM (T47D): 19%; inhibition of growth at 10 µM (MDA-MB-468): 31%; inhibition of growth at 10 µM [27]: 11%
